The values below come from patent US9624241B2 (Incyte Corporation, priority 2013, dated 2017).

Like-named read-outs stand apart in the source and are kept apart here.

One experiment deals with KMS.12.BM cells. Description: KMS.12.BM Cell Viability Assay (Example B1). It is filed as cell-based, human. The following applies: 3 days, Cell Titer-GLO, read-out: KMS cellular IC50. The procedure:
KMS.12.BM cell line (human myeloma) was purchased from JCRB (Osaka, Japan) and maintained in RPMI with 10% FBS culture medium. To measure the cytotoxic activity of the compounds through ATP quantitation, the KMS.12.BM cells are plated in the RPMI culture medium at 5000 cells/well/per 100 μL into a 96-well polystyrene clear black tissue culture plate (Greiner-bio-one through VWR, NJ), in the presence or absence of a concentration range of test compounds. After 3 days, […] Cell Titer-GLO Luminescent (Promega, Madison, Wis.) cell culture agent is added to each well for 10 min. at room temperature to stabilize the luminescent signal. This determines the number of viable cells in culture based on quantitation of the ATP present, which signals the presence of metabolically active cells.

The next experiment deals with BRD4-BD2 (Homo sapiens (Human), UniProt O60885). Description: BRD4 AlphaScreen Assay (Example A1), BRD4-BD2. It is filed as binding. The following applies: Assay A1, 20 nM BRD4-BD2, 50 nM H4Ac4 peptide; read-out: BRD4 BD-2 enzyme IC50. The procedure:
(§1) BRD4-BD1 and BRD4-BD2 assays were conducted in white 384-well polystyrene plate in a final volume of 20 μL for BD1 and 40 μL for BD2. Inhibitors were first serially diluted in DMSO and added to the plate wells before the addition of other reaction components. […] After plate sealing, the plate was incubated in the dark at room temperature for 75 min. before reading on a PHERAstar FS plate reader (BMG Labtech). IC50 determination was performed by fitting the curve of percent control activity versus the log of the inhibitor concentration using the GraphPad Prism 5.0 software.
Background: Alpha assays give light when donor and acceptor beads are brought close together.

In another experiment the target is BRD4-BD1 (Homo sapiens (Human), UniProt O60885). Description: BRD4 AlphaScreen Assay (Example A1), BRD4-BD1. It is filed as binding. As to conditions: Assay A1, 3.8 nM BRD4-BD1, 50 nM H4Ac4 peptide; read-out: BRD4 BD-1 enzyme IC50. The procedure:
as §1

Another experiment deals with BET proteins. Description: BET protein inhibition, assay not specified. As to conditions: comparison of chiral HPLC peaks.

The IC50 is the concentration at which inhibition is half-maximal. In the case of `Cc1noc(C)c1-c1ccc2nc(N3CC[C@@H](O)C3)n3c2c1OCC3c1cccnc1` (single isomer, unassigned) [Example 159C], the IC50 in the experiment on KMS.12.BM cells fell in the range of 1000 to 10000 nM.

On to `Cc1noc(C)c1-c1ccc2[nH]c(=O)n3c2c1OCC3c1ccccn1` (single isomer, unassigned) [Example 15, 7-(3,5-Dimethylisoxazol-4-yl)-4-pyridin-2-yl-4,5-dihydroimidazo[1,5,4-de][1,4]benzoxazin-2(1H)-one], for which the IC50 was below 100 nM on BRD4-BD2; below 1000 nM with KMS.12.BM cells (Homo sapiens, KMS-12-BM, 72 h); below 100 nM at BRD4-BD1.

Consider `Cc1noc(C)c1-c1ccc2[nH]c(=O)n3c2c1OCC3c1ccccn1` (racemic) [Example 13, 7-(3,5-Dimethylisoxazol-4-yl)-4-pyridin-2-yl-4,5-dihydroimidazo[1,5,4-de][1,4]benzoxazin-2(1H)-one], for which the IC50 at BRD4-BD2 is below 100 nM; with KMS.12.BM cells (Homo sapiens, KMS-12-BM, 72 h), below 1000 nM; on BRD4-BD1, below 100 nM.

As to `Cc1noc(C)c1-c1ccc2[nH]c(=O)n3c2c1OCC3c1nccs1` (centres unmarked) [Example 21, 7-(3,5-Dimethylisoxazol-4-yl)-4-(1,3-thiazol-2-yl)-4,5-dihydroimidazo[1,5,4-de][1,4]benzoxazin-2(1H)-one], the IC50 at BRD4-BD2 and at BRD4-BD1 was below 100 nM each time.

On to `CCNC(=O)COc1ccccc1C1COc2c(-c3c(C)noc3C)ccc3[nH]c(=O)n1c23` (centres unmarked) [Example 22, 2-{2-[7-(3,5-Dimethylisoxazol-4-yl)-2-oxo-1,2,4,5-tetrahydroimidazo[1,5,4-de][1,4]benzoxazin-4-yl]phenoxy}-N-ethylacetamide], for which the IC50 at BRD4-BD2 and at BRD4-BD1 was below 100 nM in each case.

For the compound `Cc1noc(C)c1-c1ccc2[nH]c(=O)n3c2c1OCC3c1ccccn1` (single isomer, unassigned) [Example 14, 7-(3,5-Dimethylisoxazol-4-yl)-4-pyridin-2-yl-4,5-dihydroimidazo[1,5,4-de][1,4]benzoxazin-2(1H)-one], the half-maximal inhibitory concentration (IC50) on BRD4-BD2 and at BRD4-BD1 was 1000 to 10000 nM throughout.

In the case of `Cc1noc(C)c1-c1ccc2[nH]c(=O)n3c2c1OCC3C1CCCCC1` (centres unmarked) [Example 17, 4-Cyclohexyl-7-(3,5-dimethylisoxazol-4-yl)-4,5-dihydroimidazo[1,5,4-de][1,4]benzoxazin-2(1H)-one], the IC50 at BRD4-BD2 and at BRD4-BD1 was below 100 nM in each case.

As to `Cc1noc(C)c1-c1ccc2ncn3c2c1OCC3c1ccccc1` (centres unmarked) [Example 39, 7-(3,5-Dimethylisoxazol-4-yl)-4-phenyl-4,5-dihydroimidazo[1,5,4-de][1,4]benzoxazine], the IC50 at BRD4-BD2 and at BRD4-BD1 was below 100 nM each time.

As to `Cc1noc(C)c1-c1ccc2[nH]c(=O)n3c2c1OCC3c1ccccc1` (single isomer, unassigned) [Example 1A, 7-(3,5-Dimethylisoxazol-4-yl)-4-phenyl-4,5-dihydroimidazo[1,5,4-de][1,4]benzoxazin-2(1H)-one], the “relative activity of separated enantiomers” value with BET proteins is “more active”.

On to `Cc1noc(C)c1-c1ccc2[nH]c(=O)n3c2c1OCC3c1ccccc1OCC(=O)NCCO` (centres unmarked) [Example 50, 2-{2-[7-(3,5-Dimethylisoxazol-4-yl)-2-oxo-1,2,4,5-tetrahydroimidazo[1,5,4-de][1,4]benzoxazin-4-yl]phenoxy}-N-(2-hydroxyethyl)acetamide], for which the IC50 at BRD4-BD2 and at BRD4-BD1 was below 100 nM in each case.

For `Cc1noc(C)c1-c1ccc2nc(NCCO)n3c2c1OCC3c1ccccc1` (centres unmarked) [Example 29, 2-{[7-(3,5-Dimethylisoxazol-4-yl)-4-phenyl-4,5-dihydroimidazo[1,5,4-de][1,4]benzoxazin-2-yl]amino}ethanol], the IC50 at BRD4-BD2 and at BRD4-BD1 was below 100 nM throughout.

Regarding `Cc1noc(C)c1-c1ccc2nc(N(C)CCO)n3c2c1OCC3c1ccccc1` (centres unmarked) [Example 34, 2-[[7-(3,5-Dimethylisoxazol-4-yl)-4-phenyl-4,5-dihydroimidazo[1,5,4-de][1,4]benzoxazin-2-yl](methyl)amino]ethanol], the IC50 at BRD4-BD2 and at BRD4-BD1 was below 100 nM in each case.

For the compound `Cc1cc(-c2ccnn2C)c2c3c1[nH]c(=O)n3C(c1ccccc1)CO2` (centres unmarked) [Example 37, 9-Methyl-7-(1-methyl-1H-pyrazol-5-yl)-4-phenyl-4,5-dihydroimidazo[1,5,4-de][1,4]benzoxazin-2(1H)-one], the IC50 on BRD4-BD2 is below 100 nM; on BRD4-BD1, 100 to 1000 nM.

For `Cn1ncc(Cl)c1-c1ccc2[nH]c(=O)n3c2c1OCC3c1ccccc1` (centres unmarked) [Example 38, 7-(4-Chloro-1-methyl-1H-pyrazol-5-yl)-4-phenyl-4,5-dihydroimidazo[1,5,4-de][1,4]benzoxazin-2(1H)-one], the IC50 on BRD4-BD2 is 100 to 1000 nM; on BRD4-BD1, 1000 to 10000 nM.

With `Cc1noc(C)c1-c1ccc2[nH]c(=O)n3c2c1OCC3C1CCCO1` (single isomer, unassigned) [Example 18A, 7-(3,5-Dimethylisoxazol-4-yl)-4-(tetrahydrofuran-2-yl)-4,5-dihydroimidazo[1,5,4-de][1,4]benzoxazin-2(1H)-one], the IC50 at BRD4-BD2 was below 100 nM; at BRD4-BD1 it was 100 to 1000 nM.

Turning to `Cc1noc(C)c1-c1ccc2nc(N3CCN(C(=O)OC(C)(C)C)CC3)n3c2c1OCC3c1ccccc1` (centres unmarked) [Example 60], the IC50 at BRD4-BD2 and at BRD4-BD1 was below 100 nM each time.

With `Cc1noc(C)c1-c1ccc2nc(NC(C)CO)n3c2c1OCC3c1ccccc1` (single isomer, unassigned) [Example 30, 2-{[7-(3,5-Dimethylisoxazol-4-yl)-4-phenyl-4,5-dihydroimidazo[1,5,4-de][1,4]benzoxazin-2-yl]amino}propan-1-ol], the IC50 at BRD4-BD2 and on BRD4-BD1 was below 100 nM each time.

As for `Cc1noc(C)c1-c1ccc2c3c1OCC(c1ccccc1)n3c(=O)n2CCN1CCOCC1` (centres unmarked) [Example 10, 7-(3,5-Dimethylisoxazol-4-yl)-1-(2-morpholin-4-ylethyl)-4-phenyl-4,5-dihydroimidazo[1,5,4-de][1,4]benzoxazin-2(1H)-one], the figures for the IC50 on BRD4-BD2 and at BRD4-BD1 were below 100 nM and 100 to 1000 nM, respectively.

For the compound `COc1cccc(C2COc3c(-c4c(C)noc4C)ccc4[nH]c(=O)n2c34)c1` (centres unmarked) [Example 6, 7-(3,5-Dimethylisoxazol-4-yl)-4-(3-methoxyphenyl)-4,5-dihydroimidazo[1,5,4-de][1,4]benzoxazin-2(1H)-one], the IC50 at BRD4-BD2 and at BRD4-BD1 was below 100 nM each time.

With `Cc1noc(C)c1-c1ccc2[nH]c(=O)n3c2c1OCC3c1ccc(F)cc1F` (centres unmarked) [Example 8, 7-(3,5-Dimethylisoxazol-4-yl)-4-(2,4-difluorophenyl)-4,5-dihydroimidazo[1,5,4-de][1,4]benzoxazin-2(1H)-one], the IC50 on BRD4-BD2 and on BRD4-BD1 was below 100 nM throughout.

For the compound `Cc1noc(C)c1-c1ccc2[nH]c(=O)n3c2c1OCC3c1ccc(C#N)cc1` (centres unmarked) [Example 4, 4-[7-(3,5-Dimethylisoxazol-4-yl)-2-oxo-1,2,4,5-tetrahydroimidazo[1,5,4-de][1,4]benzoxazin-4-yl]benzonitrile], the IC50 at BRD4-BD2 and on BRD4-BD1 was below 100 nM in each case.

As to `Cc1noc(C)c1-c1ccc2[nH]c(=O)n3c2c1OCC3c1ccccc1` (single isomer, unassigned) [Example 1B, 7-(3,5-Dimethylisoxazol-4-yl)-4-phenyl-4,5-dihydroimidazo[1,5,4-de][1,4]benzoxazin-2(1H)-one], the “relative activity of separated enantiomers” value in the experiment with BET proteins was “less active”.

For `Cc1noc(C)c1-c1ccc2nc(NCC(C)O)n3c2c1OCC3c1ccccc1` (centres unmarked) [Example 32, 1-{[7-(3,5-Dimethylisoxazol-4-yl)-4-phenyl-4,5-dihydroimidazo[1,5,4-de][1,4]benzoxazin-2-yl]amino}propan-2-ol], the IC50 on BRD4-BD2 and at BRD4-BD1 was below 100 nM in each case.

For the compound `Cc1noc(C)c1-c1ccc2nc(C)n3c2c1OCC3c1ccccc1` (centres unmarked) [Example 9, 7-(3,5-Dimethylisoxazol-4-yl)-2-methyl-4-phenyl-4,5-dihydroimidazo[1,5,4-de][1,4]benzoxazine], the IC50 on BRD4-BD2 and at BRD4-BD1 was below 100 nM throughout.
